Tests used:
Assay in all cases: KINOMEscan competition binding
Conditions in all cases: compound 10.0 µM
[1] = target: MAP2K1 (human) (UniProt Q02750)
[2] = target: MAP3K1 (human) (UniProt Q13233)
[3] = target: TBK1 (human) (UniProt Q9UHD2)
[4] = target: BLK (human) (UniProt P51451)
[5] = target: MKNK2 (human) (UniProt Q9HBH9)
[6] = target: EGFR (human) (UniProt P00533)
[7] = target: LIMK1 (human) (UniProt P53667)
[8] = target: IRAK4 (human) (UniProt Q9NWZ3)
[9] = target: TEK (human) (UniProt Q02763)
[10] = target: CAMK2G (human) (UniProt Q13555)
[11] = target: PKN2 (human) (UniProt Q16513)
[12] = target: RIOK3 (human) (UniProt O14730)
[13] = target: PKMYT1 (human) (UniProt Q99640)
[14] = target: PTK2 (human) (UniProt Q05397)
[15] = target: CDKL1 (human) (UniProt Q00532)
[16] = target: PRKCQ (human) (UniProt Q04759)
[17] = target: GAK (human) (UniProt O14976)
[18] = target: IRAK1 (human) (UniProt P51617)
[19] = target: ANKK1 (human) (UniProt Q8NFD2)
[20] = target: LIMK2 (human) (UniProt P53671)
[21] = target: CAMK1D (human) (UniProt Q8IU85)
[22] = target: MST4 (human) (UniProt Q9P289)
[23] = system: KIT (human), P10721 [V559D]
[24] = target: NEK7 (human) (UniProt Q8TDX7)
[25] = target: CHUK (human) (UniProt O15111)
[26] = target: PIK3CB (human) (UniProt P42338)
[27] = target: ROS1 (human) (UniProt P08922)
[28] = target: MKNK1 (human) (UniProt Q9BUB5)
[29] = system: PIK3CA (human), P42336 [E545K]
[30] = system: PIK3CA (human), P42336 [I800L]
[31] = system: FLT3 (human), P36888 [K663Q]
[32] = target: AKT1 (human) (UniProt P31749)
[33] = target: DYRK2 (human) (UniProt Q92630)
[34] = target: CSNK1G1 (human) (UniProt Q9HCP0)
[35] = target: FGFR4 (human) (UniProt P22455)
[36] = target: RPS6KA4 KD2 (human) (UniProt O75676)
[37] = target: MAP4K4 (human) (UniProt O95819)
[38] = target: PKN1 (human) (UniProt Q16512)
[39] = system: FGFR3 (human), P22607 [G697C]
[40] = target: CSNK1A1 (human) (UniProt P48729)
[41] = system: BRAF (human), P15056 [V600E]

Chain of CSNK1A1 (human) (P48729 whole entry, looked up): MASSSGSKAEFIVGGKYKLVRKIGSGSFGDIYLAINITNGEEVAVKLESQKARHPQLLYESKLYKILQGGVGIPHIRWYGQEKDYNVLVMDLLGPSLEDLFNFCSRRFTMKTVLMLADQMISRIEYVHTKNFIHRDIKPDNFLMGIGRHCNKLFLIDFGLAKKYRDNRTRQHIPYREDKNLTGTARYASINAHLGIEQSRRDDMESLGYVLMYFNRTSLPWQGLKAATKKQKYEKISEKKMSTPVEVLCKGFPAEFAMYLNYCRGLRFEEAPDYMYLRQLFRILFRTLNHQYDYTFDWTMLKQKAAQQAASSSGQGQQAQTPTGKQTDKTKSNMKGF
Chain of IRAK4 (human) (Q9NWZ3 whole entry, looked up): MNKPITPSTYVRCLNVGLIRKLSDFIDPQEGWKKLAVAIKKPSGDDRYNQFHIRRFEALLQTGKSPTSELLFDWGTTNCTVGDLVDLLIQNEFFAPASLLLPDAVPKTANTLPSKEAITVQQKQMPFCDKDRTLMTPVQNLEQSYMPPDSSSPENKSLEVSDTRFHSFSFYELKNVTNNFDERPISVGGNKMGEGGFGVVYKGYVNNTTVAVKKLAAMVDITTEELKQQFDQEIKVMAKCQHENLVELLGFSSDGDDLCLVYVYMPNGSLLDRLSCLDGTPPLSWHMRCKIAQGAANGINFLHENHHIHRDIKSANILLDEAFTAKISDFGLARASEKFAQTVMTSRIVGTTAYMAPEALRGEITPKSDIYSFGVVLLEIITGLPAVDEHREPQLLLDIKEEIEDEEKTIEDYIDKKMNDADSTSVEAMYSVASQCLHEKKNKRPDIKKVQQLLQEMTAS
Chain of CSNK1G1 (human) (Q9HCP0 whole entry, looked up): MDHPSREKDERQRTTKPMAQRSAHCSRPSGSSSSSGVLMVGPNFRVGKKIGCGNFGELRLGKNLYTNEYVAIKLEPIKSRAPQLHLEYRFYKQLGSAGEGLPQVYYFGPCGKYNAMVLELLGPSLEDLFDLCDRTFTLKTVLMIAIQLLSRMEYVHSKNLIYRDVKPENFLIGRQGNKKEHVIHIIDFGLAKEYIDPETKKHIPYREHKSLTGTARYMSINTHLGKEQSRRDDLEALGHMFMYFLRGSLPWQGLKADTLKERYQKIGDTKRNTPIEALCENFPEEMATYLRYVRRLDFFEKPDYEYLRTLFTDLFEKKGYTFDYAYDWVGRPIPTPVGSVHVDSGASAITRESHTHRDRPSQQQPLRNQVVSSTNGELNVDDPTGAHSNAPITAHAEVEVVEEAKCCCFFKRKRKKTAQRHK
Chain of NEK7 (human) (Q8TDX7 whole entry, looked up): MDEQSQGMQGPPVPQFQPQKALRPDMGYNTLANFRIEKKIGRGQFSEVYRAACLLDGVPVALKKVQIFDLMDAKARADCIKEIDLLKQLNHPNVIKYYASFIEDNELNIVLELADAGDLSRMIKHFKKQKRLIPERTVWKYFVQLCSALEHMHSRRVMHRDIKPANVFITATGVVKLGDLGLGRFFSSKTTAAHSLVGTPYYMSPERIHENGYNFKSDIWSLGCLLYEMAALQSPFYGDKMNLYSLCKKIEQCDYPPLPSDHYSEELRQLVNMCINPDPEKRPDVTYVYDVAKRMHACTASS
Chain of MAP3K1 (human) (Q13233 whole entry, looked up): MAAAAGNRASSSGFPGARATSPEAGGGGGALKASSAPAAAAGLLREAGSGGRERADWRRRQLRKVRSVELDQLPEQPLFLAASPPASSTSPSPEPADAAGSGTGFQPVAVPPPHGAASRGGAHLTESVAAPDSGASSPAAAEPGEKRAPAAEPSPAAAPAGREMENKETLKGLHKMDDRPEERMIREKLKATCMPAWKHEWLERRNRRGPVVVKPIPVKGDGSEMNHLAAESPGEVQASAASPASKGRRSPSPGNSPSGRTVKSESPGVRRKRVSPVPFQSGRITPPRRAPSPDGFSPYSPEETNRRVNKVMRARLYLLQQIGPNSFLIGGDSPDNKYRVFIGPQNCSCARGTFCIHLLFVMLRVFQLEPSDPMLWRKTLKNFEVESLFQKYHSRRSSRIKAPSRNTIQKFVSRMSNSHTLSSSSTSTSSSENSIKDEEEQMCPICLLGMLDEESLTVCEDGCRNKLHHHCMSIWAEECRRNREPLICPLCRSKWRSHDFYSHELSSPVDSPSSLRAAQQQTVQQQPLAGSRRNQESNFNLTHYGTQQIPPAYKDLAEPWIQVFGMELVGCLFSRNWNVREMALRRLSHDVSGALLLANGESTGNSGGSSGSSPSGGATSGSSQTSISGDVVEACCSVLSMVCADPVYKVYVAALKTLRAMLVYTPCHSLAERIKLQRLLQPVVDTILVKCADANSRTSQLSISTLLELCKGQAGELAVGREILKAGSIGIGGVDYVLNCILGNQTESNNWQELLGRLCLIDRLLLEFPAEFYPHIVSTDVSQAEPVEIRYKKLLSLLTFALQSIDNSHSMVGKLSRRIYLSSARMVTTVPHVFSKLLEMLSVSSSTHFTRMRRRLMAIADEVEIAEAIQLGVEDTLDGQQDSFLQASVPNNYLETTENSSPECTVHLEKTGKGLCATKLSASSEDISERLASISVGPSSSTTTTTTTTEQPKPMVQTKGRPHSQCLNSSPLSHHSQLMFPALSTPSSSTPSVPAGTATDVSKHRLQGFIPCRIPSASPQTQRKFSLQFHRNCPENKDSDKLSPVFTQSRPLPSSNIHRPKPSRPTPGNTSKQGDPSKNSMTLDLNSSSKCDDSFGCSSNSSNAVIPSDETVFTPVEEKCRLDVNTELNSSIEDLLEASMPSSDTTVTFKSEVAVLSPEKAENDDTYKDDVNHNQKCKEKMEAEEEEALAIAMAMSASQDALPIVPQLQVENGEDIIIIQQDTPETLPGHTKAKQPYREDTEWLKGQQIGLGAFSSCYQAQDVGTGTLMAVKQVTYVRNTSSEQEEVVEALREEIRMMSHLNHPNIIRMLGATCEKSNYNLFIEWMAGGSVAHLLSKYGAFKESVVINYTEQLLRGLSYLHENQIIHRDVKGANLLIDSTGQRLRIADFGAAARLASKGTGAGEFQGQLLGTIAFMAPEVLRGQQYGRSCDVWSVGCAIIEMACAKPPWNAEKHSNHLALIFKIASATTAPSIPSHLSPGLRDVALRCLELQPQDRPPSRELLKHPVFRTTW
Chain of FGFR3 (human), P22607 [G697C] (P22607 whole entry G697C, looked up): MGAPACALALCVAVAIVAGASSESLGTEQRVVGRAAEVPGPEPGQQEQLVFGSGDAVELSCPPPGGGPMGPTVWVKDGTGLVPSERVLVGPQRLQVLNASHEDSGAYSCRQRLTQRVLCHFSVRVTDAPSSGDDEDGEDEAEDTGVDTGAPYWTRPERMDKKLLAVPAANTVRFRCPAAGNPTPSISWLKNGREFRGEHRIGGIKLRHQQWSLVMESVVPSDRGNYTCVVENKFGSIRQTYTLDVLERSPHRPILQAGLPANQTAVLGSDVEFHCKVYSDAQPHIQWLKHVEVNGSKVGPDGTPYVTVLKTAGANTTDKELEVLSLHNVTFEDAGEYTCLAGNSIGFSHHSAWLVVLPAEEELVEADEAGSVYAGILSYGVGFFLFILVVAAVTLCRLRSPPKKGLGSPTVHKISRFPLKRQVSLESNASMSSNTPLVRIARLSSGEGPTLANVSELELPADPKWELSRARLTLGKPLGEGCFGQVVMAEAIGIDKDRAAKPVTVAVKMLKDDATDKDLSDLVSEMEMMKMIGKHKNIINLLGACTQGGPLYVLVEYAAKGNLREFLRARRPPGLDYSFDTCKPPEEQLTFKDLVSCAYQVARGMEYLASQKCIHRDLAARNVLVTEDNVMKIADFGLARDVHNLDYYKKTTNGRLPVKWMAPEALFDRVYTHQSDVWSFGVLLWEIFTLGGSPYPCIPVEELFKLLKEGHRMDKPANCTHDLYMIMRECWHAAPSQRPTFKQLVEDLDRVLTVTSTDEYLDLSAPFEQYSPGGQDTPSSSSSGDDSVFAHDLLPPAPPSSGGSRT
Chain of ANKK1 (human) (Q8NFD2 whole entry, looked up): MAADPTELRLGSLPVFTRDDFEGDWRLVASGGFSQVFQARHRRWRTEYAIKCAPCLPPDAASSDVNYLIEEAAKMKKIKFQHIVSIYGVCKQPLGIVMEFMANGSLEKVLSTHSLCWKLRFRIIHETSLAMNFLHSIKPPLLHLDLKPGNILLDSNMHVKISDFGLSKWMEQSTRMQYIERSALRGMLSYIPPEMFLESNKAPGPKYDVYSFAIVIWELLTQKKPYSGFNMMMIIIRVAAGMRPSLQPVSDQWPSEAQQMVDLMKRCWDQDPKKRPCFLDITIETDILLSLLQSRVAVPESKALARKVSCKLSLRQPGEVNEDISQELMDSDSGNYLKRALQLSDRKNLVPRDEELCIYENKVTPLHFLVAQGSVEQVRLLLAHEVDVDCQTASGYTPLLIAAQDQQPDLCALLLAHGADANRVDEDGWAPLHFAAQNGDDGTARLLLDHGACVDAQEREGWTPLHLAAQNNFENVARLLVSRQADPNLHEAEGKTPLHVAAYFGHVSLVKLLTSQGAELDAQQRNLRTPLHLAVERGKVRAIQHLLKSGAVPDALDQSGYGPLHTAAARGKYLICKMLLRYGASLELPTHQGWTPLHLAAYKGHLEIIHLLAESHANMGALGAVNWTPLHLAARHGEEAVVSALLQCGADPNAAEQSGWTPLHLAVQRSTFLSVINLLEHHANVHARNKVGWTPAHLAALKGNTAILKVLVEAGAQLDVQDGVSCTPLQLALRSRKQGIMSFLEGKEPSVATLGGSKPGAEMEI
Chain of MST4 (human) (Q9P289 whole entry, looked up): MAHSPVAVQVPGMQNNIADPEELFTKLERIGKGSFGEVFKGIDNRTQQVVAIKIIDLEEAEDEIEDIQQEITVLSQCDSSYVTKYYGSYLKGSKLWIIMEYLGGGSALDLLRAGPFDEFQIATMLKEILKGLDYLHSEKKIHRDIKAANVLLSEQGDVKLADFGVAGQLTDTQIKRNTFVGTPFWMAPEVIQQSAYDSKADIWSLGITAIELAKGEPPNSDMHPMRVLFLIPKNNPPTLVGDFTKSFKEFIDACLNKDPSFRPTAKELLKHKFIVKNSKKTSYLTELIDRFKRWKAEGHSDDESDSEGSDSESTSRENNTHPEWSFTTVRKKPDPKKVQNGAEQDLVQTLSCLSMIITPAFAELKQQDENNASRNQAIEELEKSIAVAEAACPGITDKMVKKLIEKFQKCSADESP

CCC(=O)N1CCN(c2ccc(-n3c(=O)ccc4cnc5ccc(-c6cnc7ccccc7c6)cc5c43)cc2C(F)(F)F)CC1
kinase still bound, per cent of control [1]: 100% | kinase still bound, per cent of control [2]: 92% | kinase still bound, per cent of control [3]: 93% | kinase still bound, per cent of control [4]: 75% | kinase still bound, per cent of control [5]: 54% | kinase still bound, per cent of control [6]: 85% | kinase still bound, per cent of control [7]: 15% | kinase still bound, per cent of control [8]: 90% | kinase still bound, per cent of control [9]: 19% | kinase still bound, per cent of control [10]: 79% | kinase still bound, per cent of control [11]: 65% | kinase still bound, per cent of control [12]: 90% | kinase still bound, per cent of control [13]: 52% | kinase still bound, per cent of control [14]: 14% | per cent of control [15]: 100% | kinase still bound, per cent of control [16]: 91% | kinase still bound, per cent of control [17]: 57% | kinase still bound, per cent of control [18]: 100% | kinase still bound, per cent of control [19]: 93% | kinase still bound, per cent of control [20]: 4.8% | kinase still bound, per cent of control [21]: 88% | kinase still bound, per cent of control [22]: 89% | kinase still bound, per cent of control [23]: 50% | kinase still bound, per cent of control [24]: 90% | kinase still bound, per cent of control [25]: 41% | kinase still bound, per cent of control [26]: 65% | kinase still bound, per cent of control [27]: 71% | kinase still bound, per cent of control [28]: 44% | kinase still bound, per cent of control [29]: 0.6% | kinase still bound, per cent of control [30]: 0% | kinase still bound, per cent of control [31]: 23% | kinase still bound, per cent of control [32]: 91% | kinase still bound, per cent of control [33]: 86% | kinase still bound, per cent of control [34]: 100% | kinase still bound, per cent of control [35]: 21% | kinase still bound, per cent of control [36]: 100% | kinase still bound, per cent of control [37]: 5.2% | kinase still bound, per cent of control [38]: 92%

CC(C)n1nc(-c2cc3cc(O)ccc3[nH]2)c2c(N)ncnc21
kinase still bound, per cent of control [39]: 11% | kinase still bound, per cent of control [1]: 0.25% | kinase still bound, per cent of control [2]: 45% | kinase still bound, per cent of control [3]: 84% | kinase still bound, per cent of control [4]: 1.2% | kinase still bound, per cent of control [5]: 4.5% | kinase still bound, per cent of control [7]: 73% | kinase still bound, per cent of control [8]: 44% | kinase still bound, per cent of control [9]: 21% | kinase still bound, per cent of control [10]: 56% | kinase still bound, per cent of control [11]: 86% | kinase still bound, per cent of control [12]: 83% | kinase still bound, per cent of control [13]: 37% | kinase still bound, per cent of control [14]: 100% | per cent of control [15]: 100% | kinase still bound, per cent of control [16]: 58% | kinase still bound, per cent of control [17]: 6.2% | kinase still bound, per cent of control [40]: 3.6% | kinase still bound, per cent of control [18]: 25% | kinase still bound, per cent of control [19]: 8.8% | kinase still bound, per cent of control [20]: 77% | kinase still bound, per cent of control [22]: 31% | kinase still bound, per cent of control [23]: 0.3% | kinase still bound, per cent of control [24]: 100% | kinase still bound, per cent of control [25]: 41% | kinase still bound, per cent of control [26]: 0% | kinase still bound, per cent of control [27]: 100% | kinase still bound, per cent of control [28]: 19% | kinase still bound, per cent of control [31]: 27% | kinase still bound, per cent of control [32]: 100% | kinase still bound, per cent of control [33]: 1.4% | kinase still bound, per cent of control [35]: 12% | kinase still bound, per cent of control [36]: 0% | kinase still bound, per cent of control [41]: 4.4% | kinase still bound, per cent of control [37]: 38% | kinase still bound, per cent of control [38]: 85%

COc1ccc(-c2ccc3c(N4CCOCC4)nc(N4C[C@@H](C)O[C@@H](C)C4)nc3n2)cc1CO
kinase still bound, per cent of control [39]: 77% | kinase still bound, per cent of control [1]: 100% | kinase still bound, per cent of control [2]: 100% | kinase still bound, per cent of control [3]: 100% | kinase still bound, per cent of control [4]: 100% | kinase still bound, per cent of control [5]: 75% | kinase still bound, per cent of control [6]: 100% | kinase still bound, per cent of control [7]: 100% | kinase still bound, per cent of control [8]: 99% | kinase still bound, per cent of control [9]: 71% | kinase still bound, per cent of control [10]: 87% | kinase still bound, per cent of control [11]: 100% | kinase still bound, per cent of control [12]: 100% | kinase still bound, per cent of control [13]: 84% | kinase still bound, per cent of control [14]: 95% | per cent of control [15]: 100% | kinase still bound, per cent of control [16]: 100% | kinase still bound, per cent of control [17]: 95% | kinase still bound, per cent of control [40]: 100% | kinase still bound, per cent of control [18]: 100% | kinase still bound, per cent of control [19]: 98% | kinase still bound, per cent of control [20]: 94% | kinase still bound, per cent of control [21]: 89% | kinase still bound, per cent of control [22]: 100% | kinase still bound, per cent of control [23]: 90% | kinase still bound, per cent of control [24]: 100% | kinase still bound, per cent of control [25]: 72% | kinase still bound, per cent of control [26]: 30% | kinase still bound, per cent of control [27]: 100% | kinase still bound, per cent of control [28]: 36% | kinase still bound, per cent of control [29]: 2% | kinase still bound, per cent of control [30]: 0% | kinase still bound, per cent of control [31]: 96% | kinase still bound, per cent of control [32]: 88% | kinase still bound, per cent of control [33]: 63% | kinase still bound, per cent of control [34]: 94% | kinase still bound, per cent of control [35]: 100% | kinase still bound, per cent of control [36]: 95% | kinase still bound, per cent of control [41]: 92% | kinase still bound, per cent of control [37]: 88% | kinase still bound, per cent of control [38]: 94%

COC(=O)Nc1ccc(-c2nc(N3CCOCC3)c3cnn(C4CCN(C(=O)OC)CC4)c3n2)cc1
kinase still bound, per cent of control [39]: 100% | kinase still bound, per cent of control [1]: 100% | kinase still bound, per cent of control [2]: 94% | kinase still bound, per cent of control [3]: 99% | kinase still bound, per cent of control [4]: 100% | kinase still bound, per cent of control [5]: 40% | kinase still bound, per cent of control [6]: 100% | kinase still bound, per cent of control [7]: 100% | kinase still bound, per cent of control [8]: 82% | kinase still bound, per cent of control [9]: 100% | kinase still bound, per cent of control [10]: 93% | kinase still bound, per cent of control [11]: 100% | kinase still bound, per cent of control [12]: 100% | kinase still bound, per cent of control [13]: 100% | kinase still bound, per cent of control [14]: 94% | per cent of control [15]: 91% | kinase still bound, per cent of control [16]: 99% | kinase still bound, per cent of control [17]: 94% | kinase still bound, per cent of control [40]: 100% | kinase still bound, per cent of control [18]: 100% | kinase still bound, per cent of control [19]: 97% | kinase still bound, per cent of control [20]: 94% | kinase still bound, per cent of control [21]: 85% | kinase still bound, per cent of control [22]: 80% | kinase still bound, per cent of control [23]: 96% | kinase still bound, per cent of control [24]: 77% | kinase still bound, per cent of control [25]: 63% | kinase still bound, per cent of control [26]: 42% | kinase still bound, per cent of control [27]: 76% | kinase still bound, per cent of control [28]: 37% | kinase still bound, per cent of control [29]: 4.9% | kinase still bound, per cent of control [30]: 0.4% | kinase still bound, per cent of control [31]: 93% | kinase still bound, per cent of control [32]: 82% | kinase still bound, per cent of control [33]: 82% | kinase still bound, per cent of control [34]: 100% | kinase still bound, per cent of control [35]: 100% | kinase still bound, per cent of control [36]: 88% | kinase still bound, per cent of control [41]: 81% | kinase still bound, per cent of control [37]: 88% | kinase still bound, per cent of control [38]: 97%

Source: the kinase profiling compilation of Christmann-Franck et al. (2016)
